Results from PubChem BioAssay (NCI).
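Method: 48-hour compound exposure of cells in 96-well plates, five concentrations, linear interpolation of endpoints. GI50 marks 50% less growth. Definition used: TGI = concentration required for complete inhibition of growth.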

Assays:
Test in all cases: NCI-60 cell line screen, 48 h
HOP-92 NSCLC = tested on: HOP-92 NSCLC
NCI-H226 lung = tested on: NCI-H226 lung
RXF 393 renal = tested on: RXF 393 renal
SK-MEL-2 melanoma = tested on: SK-MEL-2 melanoma
SK-OV-3 ovarian = tested on: SK-OV-3 ovarian
SNB-75 CNS = tested on: SNB-75 CNS
TK-10 renal = tested on: TK-10 renal

Which results are given for CCN1CCN(Cc2ccc(C(=O)Nc3nc4ccc(Oc5ccnc(C(=O)NC)c5)cc4s3)cc2C(F)(F)F)CC1?
GI50 (HOP-92 NSCLC): 1.01 µM; TGI (HOP-92 NSCLC): 7.26 µM; GI50 (NCI-H226 lung): 2.03 µM; TGI (NCI-H226 lung): > 100 µM; GI50 (RXF 393 renal): 1.48 µM; TGI (RXF 393 renal): 2.95 µM; GI50 (SK-MEL-2 melanoma): 1.23 µM; TGI (SK-MEL-2 melanoma): 3.22 µM; GI50 (SK-OV-3 ovarian): 7.95 µM; TGI (SK-OV-3 ovarian): 32.2 µM; GI50 (SNB-75 CNS): 4.05 µM; TGI (SNB-75 CNS): 20.8 µM; GI50 (TK-10 renal): 2.65 µM; TGI (TK-10 renal): 6.83 µM
